Test results from paper PMC5460289, “Identification of New Shikonin Derivatives as Antitumor Agents Targeting STAT3 SH2 Domain” (Scientific Reports, 2017).

Experiments:
Type in all cases: cell-based, human
[1] = tested on: IL-6-induced STAT3 phosphorylation in MDA-MB-231 cells; assay: IL-6 induction of STAT3 phosphorylation (Western blot); conditions: 2 μM pretreatment 24 h, IL-6 (20 ng/mL) 30 min
Procedure: (§1) Figure 6 (A) PMM-172 suppressed constitutive pSTAT3 (Tyr705) in a dose-dependent manner. (B) PMM-172 suppressed constitutive pSTAT3 (Tyr705) in a time-dependent manner. (C) MDA-MB-231 cells were treated with IL-6 (20 ng/mL) or vehicle for 30 min, with or without pretreatment with PMM-172 (2 μM) for 24 h. PMM-172 inhibited IL-6 induced phosphorylation of STAT3. (D) Stattic suppressed constitutive pSTAT3 (Tyr705) in a dose-dependent manner. (E) Stattic suppressed constitutive pSTAT3 (Tyr705) in a time-dependent manner. (F) Tyrosine phosphorylation of two STAT family proteins STAT1 and STAT5 were detected with specific antibodies. […] Data were shown as mean ± SD of three independent experiments. *P < 0.05, **P < 0.01. Cropped blots/gels were used in the figure and the gels had been run under the same experimental conditions; the full-length blots/gels are presented in Supplementary Figure S2.
We further investigated whether PMM-172 could inhibit IL-6-induced STAT3 phosphorylation in MDA-MB-231 cells.
Cells were seeded in 10 cm plates and allowed to adhere overnight. The following day, the specimen was serum starved for 24 h. The specimen was then treated with or without tested agents at the dose of 2 μM. […] Cells were then harvested after 30 min and analyzed by Western blot.

SKBR-3 = assay: MTT anti-proliferation assay; conditions: Homo sapiens, SK-BR-3, 24 h treatment
Procedure: (§2) Initial experiments were performed for evaluation of growth inhibition by the new compounds against six human breast cancer cell lines, including MCF-7 (ER+/PR+, HER-2-), BT474 (ER+/PR+, HER-2+), SKBR-3 (ER-/PR-/HER-2+), MDA-MB-436 (ER-/PR-/HER-2-), MDA-MB-231 (ER-/PR-/HER-2-), MDA-MB-468 (ER-/PR-/HER-2-) and non-tumorigenic MCF-10A cells. After 24 h treatment by the obtained compounds, the inhibition was assessed and the IC50 was summarized. […] Subsequently, the inhibition of STAT3 activation by PMM-172 and Stattic was evaluated using a dual-luciferase assay.
(§3) The anti-proliferative activities of the prepared compounds against MCF-7 (ER+/PR+, HER-2-), BT474 (ER+/PR+, HER-2+), SKBR-3 (ER-/PR-/HER-2+), MDA-MB-436 (ER-/PR-/HER-2-), MDA-MB-231 (ER-/PR-/HER-2-), MDA-MB-468 (ER-/PR-/HER-2-) and non-tumorigenic MCF-10A cell lines were evaluated using a standard (MTT)-based colorimetric assay with some modification. Cell lines were grown to log phase in DMEM supplemented with 10% fetal bovine serum. Cell suspensions were prepared and 100 μL/well dispensed into 96-well plates giving 10^4 cells/well. The subsequent incubation was permitted at 37 °C, 5% CO2 atmosphere for 24 h to allow the cells to reattach. Subsequently, cells were treated with the target compounds at increasing concentrations in the presence of 10% FBS for 24 h. Then, cell viability was assessed by the conventional 3-(4, 5-dimethylthiazol-2-yl)-2, 5-diphenyltetrazolium bromide (MTT) reduction assay and carried out strictly according to the manufacturer instructions. The absorbance (OD570) was read on an ELISA reader (Tecan, Austria). In all experiments, three replicate wells were used for each drug concentration. Each assay was carried out for at least three times.

BT-474 = assay: MTT anti-proliferation assay; conditions: Homo sapiens, BT-474, 24 h treatment
Procedure: as §2, §3

MCF-7 = assay: MTT anti-proliferation assay; conditions: Homo sapiens, MCF7, 24 h treatment
Procedure: as §2, §3

MDA-MB-436 = assay: MTT anti-proliferation assay; conditions: Homo sapiens, MDA-MB-436, 24 h treatment
Procedure: as §2, §3

MDA-MB-231 = assay: MTT anti-proliferation assay; conditions: Homo sapiens, MDA-MB-231, 24 h treatment
Procedure: as §2, §3

MDA-MB-468 = assay: MTT anti-proliferation assay; conditions: Homo sapiens, MDA-MB-468, 24 h treatment
Procedure: as §2, §3

STAT1 = assay: Western blot of STAT1 phosphorylation and expression; conditions: MDA-MB-231
Procedure: as §1
Subsequently, we evaluated the phosphorylation level of other STAT family proteins including STAT1 and STAT5.
Cells were rinsed twice with cold PBS and then lysed with RIPA buffer containing a protease inhibitor mixture at 1:100 dilution on ice for 30 min. Insoluble components of cell lysates were removed by centrifugation (4 °C, 12000 rmp, 10 min), and protein concentrations were measured using a Pierce BCA protein assay kit. […]

IC50 (SKBR-3): 3.14 ± 0.46 µM
IC50 (BT-474): 5.26 ± 0.66 µM
IC50 (MCF-7): 4.87 ± 0.55 µM
IC50 (MDA-MB-436): 3.07 ± 0.47 µM
IC50 (MDA-MB-231): 1.98 ± 0.49 µM
IC50 (MDA-MB-468): 3.24 ± 0.27 µM
Compound: COc1cc(OC)cc(-c2nnc(SCC(=O)O[C@H](CC=C(C)C)C3=CC(=O)c4c(O)ccc(O)c4C3=O)o2)c1 [PMM-172, (R)-1-(5,8-dihydroxy-1,4-dioxo-1,4-dihydronaphthalen-2-yl)-4-methylpent-3-en-1-yl 2-((5-(3,5-dimethoxyphenyl)-1,3,4-oxadiazol-2-yl)thio)acetate]
IL-6-induced STAT3 phosphorylation [1]: suppressed IL-6-induced STAT3 phosphorylation
phosphorylation and expression of STAT1 (STAT1): inhibited neither the phosphorylation nor expression
